According to ChEMBL document CHEMBL1128860, “5-O-Carboxymethyl piperazide derivatives of serotonin: a new class of potent and selective 5-HT1D receptor agonists” (Bioorg Med Chem Lett, 1995):

Experiments:
[1] = species: Oryctolagus cuniculus; experiment: Compound was tested for its ability to contract rabbit saphenous vein; format: functional
[2] = target: T1, 5-hydroxytryptamine receptor 2C (Homo sapiens, UniProt P28335); experiment: (§1) Compound was tested for its affinity towards 5-hydroxytryptamine 1C receptor
T1 sequence (P28335 whole entry): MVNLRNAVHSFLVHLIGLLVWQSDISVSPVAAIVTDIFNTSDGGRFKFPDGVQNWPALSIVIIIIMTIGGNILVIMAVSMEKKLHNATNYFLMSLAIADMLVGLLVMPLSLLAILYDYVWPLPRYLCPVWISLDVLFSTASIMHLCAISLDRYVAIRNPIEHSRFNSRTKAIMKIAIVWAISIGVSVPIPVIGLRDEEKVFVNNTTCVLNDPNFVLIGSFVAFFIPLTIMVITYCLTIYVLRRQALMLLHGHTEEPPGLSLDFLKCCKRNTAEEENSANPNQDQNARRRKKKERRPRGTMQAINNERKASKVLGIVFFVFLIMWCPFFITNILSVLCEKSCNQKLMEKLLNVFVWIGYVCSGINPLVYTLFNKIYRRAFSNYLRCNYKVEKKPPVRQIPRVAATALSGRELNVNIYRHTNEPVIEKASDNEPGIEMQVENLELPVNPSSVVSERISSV

[3] = target: Serotonin 2 (5-HT2) receptor (Homo sapiens, UniProt P41595+P28223+P28335); experiment: Compound was tested for its affinity towards 5-hydroxytryptamine 2 receptor; format: protein assay
[4] = target: T2, 5-hydroxytryptamine receptor 3A (Homo sapiens, UniProt P46098); experiment: (§2) Compound was tested for its affinity towards 5-hydroxytryptamine 3 receptor
T2 sequence (P46098 whole entry): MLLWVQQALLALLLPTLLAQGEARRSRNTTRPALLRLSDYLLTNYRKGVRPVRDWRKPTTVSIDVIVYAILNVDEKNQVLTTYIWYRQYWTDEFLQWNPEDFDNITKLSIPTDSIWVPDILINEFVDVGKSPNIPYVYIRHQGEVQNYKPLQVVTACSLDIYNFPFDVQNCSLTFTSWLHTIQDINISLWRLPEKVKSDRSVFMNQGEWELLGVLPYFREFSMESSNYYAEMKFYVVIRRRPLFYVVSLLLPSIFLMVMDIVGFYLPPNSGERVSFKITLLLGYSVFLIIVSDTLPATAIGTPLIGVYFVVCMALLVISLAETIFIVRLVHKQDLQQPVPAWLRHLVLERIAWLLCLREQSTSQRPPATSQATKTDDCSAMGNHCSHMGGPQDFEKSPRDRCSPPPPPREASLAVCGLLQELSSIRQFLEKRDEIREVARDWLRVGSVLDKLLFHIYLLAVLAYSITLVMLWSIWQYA

[5] = target: T3, Adrenergic receptor alpha-1 (Homo sapiens, UniProt P35348+P25100+P35368); experiment: Compound was tested for its affinity towards Alpha-1 adrenergic receptor; format: protein assay
T3 sequence (P35348 whole entry): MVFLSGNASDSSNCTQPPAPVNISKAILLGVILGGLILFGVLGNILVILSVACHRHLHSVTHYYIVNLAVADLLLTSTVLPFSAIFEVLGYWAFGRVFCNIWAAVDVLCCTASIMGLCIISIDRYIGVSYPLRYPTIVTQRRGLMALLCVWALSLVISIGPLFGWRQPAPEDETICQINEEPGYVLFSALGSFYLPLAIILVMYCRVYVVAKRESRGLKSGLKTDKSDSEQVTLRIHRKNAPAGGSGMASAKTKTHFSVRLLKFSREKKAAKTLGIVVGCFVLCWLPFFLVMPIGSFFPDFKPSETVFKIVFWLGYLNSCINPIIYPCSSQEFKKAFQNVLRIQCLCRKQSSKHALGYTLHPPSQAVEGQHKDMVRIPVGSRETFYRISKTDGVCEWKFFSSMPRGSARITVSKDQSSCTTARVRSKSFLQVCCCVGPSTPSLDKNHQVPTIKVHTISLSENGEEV
T3 sequence (P25100 whole entry): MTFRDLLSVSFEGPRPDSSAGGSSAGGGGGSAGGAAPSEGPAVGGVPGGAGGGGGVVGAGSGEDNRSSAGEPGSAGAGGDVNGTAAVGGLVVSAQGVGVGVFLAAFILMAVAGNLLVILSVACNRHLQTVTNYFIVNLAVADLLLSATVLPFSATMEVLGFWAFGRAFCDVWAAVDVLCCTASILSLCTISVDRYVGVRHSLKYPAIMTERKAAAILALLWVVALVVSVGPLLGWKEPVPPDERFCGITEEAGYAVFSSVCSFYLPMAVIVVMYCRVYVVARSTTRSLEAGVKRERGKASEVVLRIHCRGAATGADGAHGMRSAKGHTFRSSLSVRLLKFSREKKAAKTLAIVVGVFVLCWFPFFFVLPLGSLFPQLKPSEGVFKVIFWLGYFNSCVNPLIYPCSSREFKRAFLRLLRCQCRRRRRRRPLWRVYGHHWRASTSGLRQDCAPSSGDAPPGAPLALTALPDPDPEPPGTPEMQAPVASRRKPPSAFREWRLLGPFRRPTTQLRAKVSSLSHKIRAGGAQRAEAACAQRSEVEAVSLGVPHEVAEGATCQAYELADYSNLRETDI
T3 sequence (P35368 whole entry): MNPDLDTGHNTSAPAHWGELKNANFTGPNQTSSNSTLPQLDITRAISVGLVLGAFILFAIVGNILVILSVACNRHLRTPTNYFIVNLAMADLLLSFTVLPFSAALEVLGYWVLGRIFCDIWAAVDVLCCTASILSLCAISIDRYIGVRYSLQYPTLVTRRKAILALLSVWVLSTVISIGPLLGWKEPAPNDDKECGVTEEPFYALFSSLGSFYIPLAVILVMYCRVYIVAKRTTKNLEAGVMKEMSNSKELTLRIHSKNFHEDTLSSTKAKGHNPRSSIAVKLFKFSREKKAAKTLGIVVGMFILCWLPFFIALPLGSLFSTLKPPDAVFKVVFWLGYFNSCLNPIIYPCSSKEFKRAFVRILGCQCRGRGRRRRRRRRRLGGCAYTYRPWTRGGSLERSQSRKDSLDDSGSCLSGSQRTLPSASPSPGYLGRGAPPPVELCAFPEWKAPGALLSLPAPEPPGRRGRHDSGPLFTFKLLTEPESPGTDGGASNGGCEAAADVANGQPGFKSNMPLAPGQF

[6] = target: D(2) dopamine receptor (Homo sapiens, UniProt P14416); experiment: Compound was tested for its affinity towards dopaminergic (D2) receptor
Sequence of D(2) dopamine receptor (P14416 whole entry): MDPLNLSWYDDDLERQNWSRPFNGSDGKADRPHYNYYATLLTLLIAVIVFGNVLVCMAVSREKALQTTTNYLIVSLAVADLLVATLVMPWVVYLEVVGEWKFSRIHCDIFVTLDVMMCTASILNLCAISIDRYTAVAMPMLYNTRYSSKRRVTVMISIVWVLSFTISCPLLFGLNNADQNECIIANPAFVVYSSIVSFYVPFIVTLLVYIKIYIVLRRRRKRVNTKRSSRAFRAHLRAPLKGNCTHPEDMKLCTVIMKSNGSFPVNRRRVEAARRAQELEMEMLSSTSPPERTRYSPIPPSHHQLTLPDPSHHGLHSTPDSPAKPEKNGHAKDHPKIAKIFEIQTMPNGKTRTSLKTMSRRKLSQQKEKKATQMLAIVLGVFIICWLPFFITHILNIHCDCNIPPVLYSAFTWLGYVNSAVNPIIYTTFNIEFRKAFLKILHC

[7] = target: Histamine H1 receptor (Homo sapiens, UniProt P35367); experiment: Compound was tested for its affinity towards histaminergic (H 1) receptor
Sequence of Histamine H1 receptor (P35367 whole entry): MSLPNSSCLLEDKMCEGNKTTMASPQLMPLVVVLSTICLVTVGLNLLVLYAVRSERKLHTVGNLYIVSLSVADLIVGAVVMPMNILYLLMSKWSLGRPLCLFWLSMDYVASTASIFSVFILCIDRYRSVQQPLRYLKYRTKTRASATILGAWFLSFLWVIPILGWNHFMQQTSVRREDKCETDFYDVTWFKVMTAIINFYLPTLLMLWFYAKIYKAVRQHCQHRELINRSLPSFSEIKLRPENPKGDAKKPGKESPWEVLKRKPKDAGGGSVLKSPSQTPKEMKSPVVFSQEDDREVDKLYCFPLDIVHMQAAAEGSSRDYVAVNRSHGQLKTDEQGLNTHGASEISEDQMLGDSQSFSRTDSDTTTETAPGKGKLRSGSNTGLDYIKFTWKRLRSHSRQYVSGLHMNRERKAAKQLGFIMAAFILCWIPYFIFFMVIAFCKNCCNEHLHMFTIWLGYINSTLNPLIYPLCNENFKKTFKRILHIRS

[8] = target: T4, Muscarinic acetylcholine receptor M4 (Homo sapiens, UniProt P08173); experiment: Compound was tested for its affinity towards muscarinic (M) receptor
T4 sequence (P08173 whole entry): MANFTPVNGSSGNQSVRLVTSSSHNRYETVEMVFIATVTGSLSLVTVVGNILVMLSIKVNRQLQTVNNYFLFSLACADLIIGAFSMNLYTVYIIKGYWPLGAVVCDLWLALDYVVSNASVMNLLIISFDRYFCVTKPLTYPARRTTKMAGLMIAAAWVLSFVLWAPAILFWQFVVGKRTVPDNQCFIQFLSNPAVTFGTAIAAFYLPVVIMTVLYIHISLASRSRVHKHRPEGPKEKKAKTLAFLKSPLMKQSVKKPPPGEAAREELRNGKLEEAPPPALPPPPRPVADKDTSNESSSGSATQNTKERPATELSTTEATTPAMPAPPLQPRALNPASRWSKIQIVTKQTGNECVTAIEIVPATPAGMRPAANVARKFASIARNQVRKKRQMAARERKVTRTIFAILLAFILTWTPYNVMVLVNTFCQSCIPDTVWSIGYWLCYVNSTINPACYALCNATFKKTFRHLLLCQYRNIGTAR

[9] = target: T5, 5-hydroxytryptamine receptor 4 (Homo sapiens, UniProt Q13639); experiment: Compound was tested for its affinity towards 5-hydroxy tryptamine 4 receptor
T5 sequence (Q13639 whole entry): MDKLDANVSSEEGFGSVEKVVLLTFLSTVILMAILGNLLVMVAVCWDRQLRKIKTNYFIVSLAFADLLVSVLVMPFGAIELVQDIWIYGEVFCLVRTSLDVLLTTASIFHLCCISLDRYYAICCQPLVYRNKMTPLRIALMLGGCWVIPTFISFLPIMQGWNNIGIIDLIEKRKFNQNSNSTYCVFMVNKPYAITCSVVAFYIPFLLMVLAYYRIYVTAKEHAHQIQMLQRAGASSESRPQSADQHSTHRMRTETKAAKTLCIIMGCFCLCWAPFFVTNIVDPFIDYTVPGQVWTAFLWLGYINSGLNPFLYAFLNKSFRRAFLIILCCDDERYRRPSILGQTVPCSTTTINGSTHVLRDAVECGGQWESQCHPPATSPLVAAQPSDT

[10] = target: T6, 5-hydroxytryptamine receptor 1A (Homo sapiens, UniProt P08908); experiment: Compound was tested for its ability to inhibit forskolin-stimulated activity of adenylate cyclase coupled to human 5-HT 1A receptor in HeLa cells; value ranges from 85-370; format: functional, cell-based
T6 sequence (P08908 whole entry): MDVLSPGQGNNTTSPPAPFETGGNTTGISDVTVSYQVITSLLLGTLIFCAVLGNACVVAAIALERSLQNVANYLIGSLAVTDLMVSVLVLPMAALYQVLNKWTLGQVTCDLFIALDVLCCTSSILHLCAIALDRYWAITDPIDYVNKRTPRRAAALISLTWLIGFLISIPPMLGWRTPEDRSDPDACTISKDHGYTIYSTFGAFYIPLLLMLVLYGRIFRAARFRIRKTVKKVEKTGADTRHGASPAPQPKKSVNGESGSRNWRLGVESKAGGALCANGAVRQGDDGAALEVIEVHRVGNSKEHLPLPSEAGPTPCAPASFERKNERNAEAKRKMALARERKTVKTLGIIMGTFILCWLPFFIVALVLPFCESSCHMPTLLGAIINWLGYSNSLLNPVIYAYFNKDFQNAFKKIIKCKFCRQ

[11] = target: T6, 5-hydroxytryptamine receptor 1A; experiment: Binding affinity towards cloned human 5-hydroxytryptamine 1A receptor was determined
[12] = target: 5-hydroxytryptamine receptor 1D (Homo sapiens, UniProt P28221); experiment: Binding affinity towards cloned human 5-hydroxytryptamine 1D receptor alpha was determined
Sequence of 5-hydroxytryptamine receptor 1D (Homo sapiens, UniProt P28221) (P28221 whole entry): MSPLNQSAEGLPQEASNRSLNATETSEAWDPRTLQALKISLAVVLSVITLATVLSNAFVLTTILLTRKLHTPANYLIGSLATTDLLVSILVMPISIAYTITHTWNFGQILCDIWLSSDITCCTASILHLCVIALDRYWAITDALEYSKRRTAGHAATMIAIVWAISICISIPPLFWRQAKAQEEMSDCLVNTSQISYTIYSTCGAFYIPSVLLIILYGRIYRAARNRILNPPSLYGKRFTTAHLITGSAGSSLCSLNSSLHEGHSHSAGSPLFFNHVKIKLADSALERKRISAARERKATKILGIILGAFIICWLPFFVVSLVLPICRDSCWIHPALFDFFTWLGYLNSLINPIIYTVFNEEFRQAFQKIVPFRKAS

[13] = target: T6, 5-hydroxytryptamine receptor 1A; experiment: Compound was tested for its ability to inhibit forskolin-stimulated activity of adenylate cyclase coupled to human 5-hydroxytryptamine 1A receptor in HeLa cells; value ranges from 95-320; format: functional, cell-based
[14] = target: T7, 5-hydroxytryptamine receptor 2C (Rattus norvegicus, UniProt P08909); experiment: as §1
T7 sequence (P08909 whole entry): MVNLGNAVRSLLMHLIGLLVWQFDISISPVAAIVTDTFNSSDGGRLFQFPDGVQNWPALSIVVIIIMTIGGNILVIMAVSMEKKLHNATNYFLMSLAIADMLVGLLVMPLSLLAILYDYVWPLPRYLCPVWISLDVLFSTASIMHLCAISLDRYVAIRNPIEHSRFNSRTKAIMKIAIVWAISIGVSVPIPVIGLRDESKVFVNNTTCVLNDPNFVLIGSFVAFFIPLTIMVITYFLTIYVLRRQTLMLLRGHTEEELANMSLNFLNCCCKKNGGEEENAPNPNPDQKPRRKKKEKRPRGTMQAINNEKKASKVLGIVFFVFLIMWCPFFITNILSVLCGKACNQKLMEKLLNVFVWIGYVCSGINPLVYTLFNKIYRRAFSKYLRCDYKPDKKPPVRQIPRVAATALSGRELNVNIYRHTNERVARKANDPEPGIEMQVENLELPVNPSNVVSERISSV

[15] = target: Serotonin 3 (5-HT3) receptor; experiment: as §2; format: protein-complex assay
[16] = target: T5, 5-hydroxytryptamine receptor 4; experiment: Compound was tested for its affinity towards 5-hydroxytryptamine 4 receptor
[17] = target: 5-hydroxytryptamine receptor 1D (Cavia porcellus, UniProt Q60484); experiment: Binding affinity towards guinea pig 5-hydroxytryptamine 1D receptor was determined
Sequence of 5-hydroxytryptamine receptor 1D (Cavia porcellus, UniProt Q60484) (Q60484 whole entry): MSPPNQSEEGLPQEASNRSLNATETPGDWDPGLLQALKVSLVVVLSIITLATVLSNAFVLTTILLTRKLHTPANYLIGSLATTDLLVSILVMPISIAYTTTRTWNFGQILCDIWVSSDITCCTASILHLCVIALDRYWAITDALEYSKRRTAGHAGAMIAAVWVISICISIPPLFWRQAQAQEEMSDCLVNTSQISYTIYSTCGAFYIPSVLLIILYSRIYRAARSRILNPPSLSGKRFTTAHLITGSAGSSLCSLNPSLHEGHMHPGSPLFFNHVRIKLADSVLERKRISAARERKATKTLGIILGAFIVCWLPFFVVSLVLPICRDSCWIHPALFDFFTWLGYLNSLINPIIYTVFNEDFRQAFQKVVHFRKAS

| Compound | pD2 [1] | IC50 [3] | IC50 [5] | IC50 [6] | IC50 [7] | IC50 [8] | Ki [11] | Ki [12] | also measured |
| --- | --- | --- | --- | --- | --- | --- | --- | --- | --- |
| CNS(=O)(=O)Cc1ccc2[nH]cc(CCN(C)C)c2c1 | 5.75 | – | – | – | – | – | – | – | – |
| Cc1ccccc1N1CCN(C(=O)COc2ccc3[nH]cc(CCN)c3c2)CC1 | – | > 10 µM | > 10 µM | > 10 µM | > 10 µM | > 10 µM | – | – | IC50 [2]: > 10 µM; IC50 [4]: > 10 µM; IC50 [9]: > 10 µM |
| COc1cccc(N2CCN(C(=O)COc3ccc4[nH]cc(CCN)c4c3)CC2)c1 | – | – | – | – | – | – | 9.8 nM | 2 nM | EC50 [10]: 85 nM |
| NCCc1c[nH]c2ccc(OCC(=O)N3CCN(c4cccc5ccccc45)CC3)cc12 | – | > 1 µM | > 1 µM | > 1 µM | > 1 µM | > 1 µM | 8.9 nM | 0.95 nM | EC50 [13]: 95 nM; IC50 [14]: > 1000 nM; IC50 [15]: > 1000 nM; IC50 [16]: > 1000 nM |
| NCCc1c[nH]c2ccc(OCC(=O)N3CCN(c4ccccc4)CC3)cc12 | 7.36 | – | – | – | – | – | – | – | – |
| NCCc1c[nH]c2ccc(OCC(=O)NCC(=O)N[C@@H](Cc3ccc(O)cc3)C(N)=O)cc12 | – | – | – | – | – | – | – | – | IC50 [17]: 60 nM |
